These results are taken from ChEMBL document CHEMBL3507680, “University of Dundee, Gates Library screen for HepG2 cell viability”.

The series is described as follows: Human HepG2 cell viability assay in 384 well format. The arrangement: dose 125 nL, time 70.5 hour; cytotoxicity at 70.5 h: concentration not given beside the values. It is filed as toxicity, cell-based. The note with it: HepG2 cells, read-out: Inhibition.

In the case of `CCNC(=O)N1CC(c2nc(Cc3ccccc3)no2)C1`, the cytotoxicity at 70.5 h was -5.59%.
With `Cc1nnsc1C(=O)N1CC(c2nc3ccccc3[nH]2)C1`, the cytotoxicity at 70.5 h was -14.1%.
As for `Cc1cc(C)n(CCN2CCN(C(=O)c3ccc(Br)o3)CC2)n1`, the cytotoxicity at 70.5 h was -4.56%.
As for `O=C(Nc1ccc2c(c1)OCO2)N1CCN(CCn2cccn2)CC1`, the cytotoxicity at 70.5 h was -11.3%.
`N#Cc1ccc(C(=O)N2CC(c3nc(-c4ncccn4)no3)C2)cc1`: the cytotoxicity at 70.5 h is -13.2%.
`CCS(=O)(=O)N1CC(c2nc(-c3ccsc3)no2)C1`: the cytotoxicity at 70.5 h is -3.37%.
For `COc1ccc(C(=O)NCc2ccco2)nn1` the value was -6.23%; for `O=C(NCC(Cc1cccc(F)c1)N1CCCC1=O)c1ccc[nH]c1=O` (centres undefined), -16.4%.
With `O=C(NCC(Cc1cccc(F)c1)N1CCCC1=O)C1CCCC1` (centres undefined), the cytotoxicity at 70.5 h was -13.2%.
Turning to `CCS(=O)(=O)NCC(Cc1cccc(F)c1)N1CCNC1=O` (centres undefined), the cytotoxicity at 70.5 h worked out at 6.34%.
Regarding `COc1cc(CN2CCC(COCc3ccccc3)CC2)cc(OC)c1`, the cytotoxicity at 70.5 h stood at 19.3%.
For the compound `O=S(=O)(c1ccccc1Cl)N1CCC2(CC1)OCCS2`, the cytotoxicity at 70.5 h is -9.74%.
Turning to `Cc1c(Cl)cccc1S(=O)(=O)N1CCC2(CC1)OCCS2`, the cytotoxicity at 70.5 h was -1.11%.
For `O=C(NC1CC1)C1CN(C(=O)c2cnccn2)C1` the value was -3.98%; for `O=C(NCC(F)(F)F)C1CN(C(=O)c2cnccn2)C1`, -9.42%; for `CC(=O)c1cccc(NC(=O)C2CN(S(=O)(=O)C3CC3)C2)c1`, -2.67%.
As to `O=C(N1CCOCC1CO)C1(c2cccs2)CCCC1` (centres undefined), the cytotoxicity at 70.5 h is -4.96%.
On to `c1ccc2c(c1)CCN(c1nc(N3CCOCC3)c3nn[nH]c3n1)C2`, for which the cytotoxicity at 70.5 h is -0.0594%.
`O=C(NCc1cccs1)C1CCN(c2cc(-n3ccnc3)ncn2)CC1`: the cytotoxicity at 70.5 h was -0.911%.
Take `O=S(=O)(NCC1CCN(c2cnccn2)CC1)c1cccs1`: the cytotoxicity at 70.5 h amounted to 5.13%.
For `COc1ccc(C(=O)NCCN2CCC(c3cccs3)CC2)cc1OC` the value was 0.337%; for `CCSc1ccccc1C(=O)NCCN1CCC(c2cccs2)CC1`, 4.38%.
With `CSCC(C)(O)CNS(=O)(=O)c1cccc(C)c1` (centres undefined), the cytotoxicity at 70.5 h came to 6.12%.
Consider `CSCCC(C)(O)CNC(=O)c1ccsc1` (centres undefined), for which the cytotoxicity at 70.5 h was 0.568%.
For `CSCCC(C)(O)CNS(=O)(=O)Cc1cccc(C)c1` (centres undefined), the cytotoxicity at 70.5 h is -16.9%.
As to `O=C(COc1ccccc1F)NCCC(O)c1ccco1` (centres undefined), the cytotoxicity at 70.5 h is -3.87%.
Turning to `O=C(NCCC(O)c1ccco1)c1ccccc1Br` (centres undefined), the cytotoxicity at 70.5 h was -2.47%.
In the case of `COC(=O)c1sccc1S(=O)(=O)NCCC(O)c1ccco1` (centres undefined), the cytotoxicity at 70.5 h is -8.35%.
Regarding `O=C(NCCC(O)c1cccs1)c1ccco1` (centres undefined), the cytotoxicity at 70.5 h is -9.55%.
Turning to `O=S(=O)(NCCC(O)c1cccs1)c1ccccc1` (centres undefined), the cytotoxicity at 70.5 h was -5.21%.
For `COc1ccc(S(=O)(=O)NCCC(O)c2cccs2)c(C)c1` (centres undefined), the cytotoxicity at 70.5 h is -8.98%.
For the compound `CC(=O)Nc1nc2c(s1)CN(CC(=O)Nc1ccc(C)c(Cl)c1)CC2`, the cytotoxicity at 70.5 h is -14.4%.
Take `O=C(Nc1nc2c(s1)CN(S(=O)(=O)C1CC1)CC2)c1cccc(Cl)c1`: the cytotoxicity at 70.5 h amounted to 8.23%.
For `O=C(Nc1ccc2c(c1)OCO2)N1CCN(CCn2ccnc2)CC1` the value was -6.54%; for `CCc1ccc(S(=O)(=O)N2CCN(CCn3ccnc3)CC2)cc1`, -0.658%; for `COC(=O)c1ccc(C(=O)NCC2(O)CCOCC2)cc1`, 33.7%.
For `O=C(COc1ccccc1F)NCC(O)(c1ccccc1)C1CC1` (centres undefined) the value was -13.8%; for `O=C(NCC1(O)CCOc2ccccc21)Nc1ccccc1` (centres undefined), 1.09%.
For `O=C(NCC1(O)CCOc2ccccc21)Nc1ccc2c(c1)OCO2` (centres undefined) the value was 0.267%.
As to `COc1ccc(CNC(=O)NCc2cc(C)oc2C)cc1`, the cytotoxicity at 70.5 h is -10.8%.
For `O=C1CC(NS(=O)(=O)c2ccc3ccccc3c2)CN1` (centres undefined) the value was -5.96%.
Regarding `CCNC(=O)c1cc2n(n1)CCCO2`, the cytotoxicity at 70.5 h is -12.7%.
On to `CCOC(=O)CNC(=O)c1cc2n(n1)CCCO2`, for which the cytotoxicity at 70.5 h is -11.8%.
Regarding `Cc1cc2cc(CNC(=O)c3cnn4c3OCCC4)ccc2[nH]1`, the cytotoxicity at 70.5 h was -1.4%.
Turning to `CC1(C)OCC2(CO1)CN(C(=O)c1cccc3ccccc13)C2`, the cytotoxicity at 70.5 h is -8.48%.
`O=C(Nc1cccc(C2SCCS2)c1)C1CCCN1c1nccs1` (centres undefined): the cytotoxicity at 70.5 h came to 0.117%.
Regarding `COc1ccc(C2CCCN2C(=O)NCCn2ccnc2)cc1` (centres undefined), the cytotoxicity at 70.5 h was 1.98%.
With `COc1ccc(C2CCCN2C(=O)NCCCn2ccnc2)cc1` (centres undefined), the cytotoxicity at 70.5 h was found to be 16.1%.
As to `Cc1noc(C)c1C(=O)N1CCCN(Cc2nccn2C(C)C)CC1`, the cytotoxicity at 70.5 h was determined as 0.0993%.
`CC(=O)N(C)CC(=O)NCC1CCN(c2cc(Cl)ccc2C)C1` (centres undefined): the cytotoxicity at 70.5 h was found to be 2.11%.
In the case of `CCc1nc(C2CCCN2CCS(=O)(=O)c2ccccc2)no1` (centres undefined), the cytotoxicity at 70.5 h is -1.81%.
For `Cc1cc(C(=O)N2CCCN(Cc3cnn(C)c3)CC2)no1` the value was -3.47%.
Consider `O=C(Cc1cn2ccsc2n1)N1CCCC(n2ccnc2)C1` (centres undefined), for which the cytotoxicity at 70.5 h was -2.03%.
For `CN(C)c1cc(C(=O)N2CCCCCC2)ccn1`, the cytotoxicity at 70.5 h is -8.97%.
Take `CN(C)c1ccc(NC(=O)NCC2CCOC2)cn1` (centres undefined): the cytotoxicity at 70.5 h was -9.11%.
Take `O=C(c1ccc(OCC2CC2)nc1)N1CCCC(n2cccn2)C1` (centres undefined): the cytotoxicity at 70.5 h was -7.07%.
For `Cn1ccc(CN2CCC(NC(=O)C3CCCCC3)CC2)cc1=O`, the cytotoxicity at 70.5 h was -3.14%.
On to `c1ccc(COc2cccc(CNC3CCc4ncnn4C3)c2)cc1` (centres undefined), for which the cytotoxicity at 70.5 h worked out at 19.6%.
For `Cc1cnn(C2CCCN(C(=O)c3ccc(OCC4CC4)nc3)C2)c1` (centres undefined) the value was -3.84%; for `O=C(c1ccc(N2CCCC2)nc1)N1CCCC(n2cncn2)C1` (centres undefined), -9%; for `O=C(Nc1nccs1)NC1CCN(CC2CCCC2)CC1`, -13.1%.
For `c1cnnc(N2CCCC2CNCc2nc(-c3cccs3)no2)c1` (centres undefined) the value was -15.1%; for `c1ccc(OCc2cscn2)c(CNC2CCc3ncnn3C2)c1` (centres undefined), -4.78%; for `Cc1cnn(CC2CCCN2Cc2cn3ccsc3n2)c1` (centres undefined), -9.34%.
Turning to `c1cnn(CC2CCCN2Cc2cn3ccsc3n2)c1` (centres undefined), the cytotoxicity at 70.5 h amounted to 6.04%.
Consider `CC(C)CNC(=O)NC(=O)C(C)Nc1cccc(CN2CCOC2=O)c1` (centres undefined), for which the cytotoxicity at 70.5 h was -10.8%.
In the case of `CC1CCN(C(=O)CN2CC(c3nc(C4CC4)no3)C2)CC1`, the cytotoxicity at 70.5 h is 23.6%.
For `Cc1noc(C2CN(Cc3ccc4c(c3)CCO4)C2)n1` the value was -11.7%; for `c1cnc(-c2noc(C3CN(Cc4ccc5c(c4)CCO5)C3)n2)nc1`, -2.95%.
With `c1csc(-c2noc(C3CN(Cc4ccc5c(c4)CCO5)C3)n2)c1`, the cytotoxicity at 70.5 h is -9.73%.
For `O=C(CN1CC(c2nc(-c3cccs3)no2)C1)NCC1CCCO1` (centres undefined) the value was -2.94%; for `COc1cc(COCC2CCN(Cc3cccnc3)CC2)cc(OC)c1`, -1.2%.
For `CN(CCO)CC1COCCN1C(=O)C1CCCCC1` (centres undefined) the value was -14.2%; for `CN(CCO)CC1COCCN1C(=O)CCC1CCCC1` (centres undefined), 47.6%.
